Structures can show the parent of a compound that is named as a salt. Where two headings read alike, the source gives them in different places.
Tests used:
[1] = Pharmacokinetic experiment in rats; assay type: in vivo, SD rats; settings: for AUC / Cmax / bioavailability: male, SD, rat; for AUC: read-out: Area Curve (AUC, ng/mL · h); for half-life: male, SD, rat, plasma; rats, Intravenous-Dose 4 mg/kg; read-out: Half life T1/2, h) (converted); for Cmax: read-out: Blood Drug level (Cmax, ng/mL)
Method: A certain amount of compound was weighted and dissolved in 0.1% Tween under vortex and ultrasound, and 0.5% carboxymethyl cellulose sodium (CMC-NA) solution was added to form a uniform solution.

[2] = test system: human diffuse large cell lymphoma B lymphocytes (Pfeiffer cell); experiment: Pfeiffer cell proliferation, Calcein AM staining; assay type: cell-based; settings: Homo sapiens, Pfeiffer
Source text: The diffuse large cell lymphoma B lymphocytes (Pfeiffer cells) were collected and counted when growing well.

[3] = test system: human diffuse large B-cell lymphoma cells (Karpas 422 cell); experiment: Karpas 422 cell proliferation, Calcein AM staining; assay type: cell-based; settings: Homo sapiens
[4] = plasma, rats, Intravenous-Dose 4 mg/kg
[5] = plasma, rats, Oral-Dose 20 mg/kg
[6] = plasma, rats, oral 20 mg/kg vs intravenous 4 mg/kg, read-out: Bioavailability (P %)
[7] = data of 14th day, read-out: Pfeiffer Proliferation IC50 Nanomoles per Liter
[8] = KARPAS-422, data of 14th day, read-out: Karpas422 Proliferation IC50 Nanomoles per Liter
[9] = KARPAS-422, read-out: Karpas422 Proliferation IC50 Nanomoles per Liter (nM)

AUC [1, 4] [ng·h/mL]	half-life [1] [h]	AUC [1, 5] [ng·h/mL]	Cmax [1, 5] [ng/mL]	bioavailability [1, 6] [%]	IC50 [2, 7] [nM]	IC50 [3, 8] [nM]	SMILES	also measured
948	1.15	1570	415	33.1	–	–	CCN(c1cc(-c2ccc3c(c2)NC(=O)C32CCOCC2)cc(C(=O)NCc2c(OC)cc(C)[nH]c2=O)c1C)C1CCNCC1 [Example 3, 3-(ethyl(piperidin-4-yl)amino)-N-((4-methoxy-6-methyl-2-oxo-1,2-dihydropyridin-3-yl)methyl)-2-methyl-5-(2-oxo-2′,3′,5′,6′-tetrahydrospiro[dihydroindole-3,4′-pyran]-6-yl)benzamide]	–
956	1.42	1310	480	27.4	–	–	CCN(c1cc(-c2cc3c(cc2F)CCC32CCOCC2)cc(C(=O)NCc2c(OC)cc(C)[nH]c2=O)c1C)C1CCOCC1 [Example 16, 3-(ethyl(tetrahydro-2H-pyran-4-yl)amino)-5-(5-fluoro-2,2′,3,3′,5′,6′-hexahydrospiro[indene-1,4′-pyran]-6-yl)-N-((4-methoxy-6-methyl-2-carbonyl-1,2-dihydropyridin-3-yl)methyl)-2-methylbenzamide]	–
932	1.35	1190	472	25.5	–	–	CCN1C(=O)C2(CCOCC2)c2ccc(-c3cc(C(=O)NCc4c(C)cc(C)[nH]c4=O)c(C)c(N(CC)C4CCOCC4)c3)cc21 [Example 18, N-((4,6-dimethyl-2-carbonyl-1,2-dihydropyridin-3-yl)methyl)-3-(ethyl(tetrahydro-2H-pyran-4-yl)amino)-5-(1-ethyl-2-carbonyl-2′,3′,5′,6′-tetrahydrospiro[dihydroindole-3,4′-pyran]-6-yl)-2-methylbenzamide]	–
–	–	–	–	–	2.32	3.03	CCN(c1cc(-c2ccc3c(c2)N(CC(F)(F)F)CC32CCOCC2)cc(C(=O)NCc2c(C)cc(C)[nH]c2=O)c1C)C1CCOCC1 [Example 20, N-((4,6-dimethyl-2-carbonyl-1,2-dihydropyridin-3-yl)methyl)-3-(ethyl(tetrahydro-2H-pyran-4-yl)amino)-2-methyl-5-(1-(2,2,2-trifluoroethyl)-2′,3′,5′,6′-tetrahydrospiro[dihydroindole-3,4′-pyran]-6-yl)benzamide]	–
–	–	–	–	–	1.85	2.53	CCN(c1cc(-c2ccc3c(c2)N(CCC(F)(F)F)CC32CCOCC2)cc(C(=O)NCc2c(C)cc(C)[nH]c2=O)c1C)C1CCOCC1 [Example 26, N-((4,6-dimethyl-2-oxo-1,2-dihydropyridin-3-yl)methyl)-3-(ethyl(tetrahydro-2H-pyran-4-yl)amino)-2-methyl-5-(1-(3,3,3-trifluoropropyl)-2′,3′,5′,6′-tetrahydrospiro[indoline-3,4′-pyran]-6-yl)benzamide]	–
–	–	–	–	–	3.1	4.92	CCN(c1cc(-c2ccc3c(c2)N(C)CC32CCN(C(=O)OC)CC2)cc(C(=O)NCc2c(C)cc(C)[nH]c2=O)c1C)C1CCOCC1 [Example 33, Methyl 6-(3-(((4,6-dimethyl-2-carbonyl-1,2-dihydropyridin-3-yl)methyl)carbamoyl)-5-(ethyl(tetrahydro-2H-pyran-4-yl)amino)-4-methylphenyl)-1-methylspiro[dihydroindole-3,4′-piperidine]-1′-carboxylate]	–
–	–	–	–	–	2.49	3.09	CCN(c1cc(-c2ccc3c(c2)N(C)CC32CCOCC2)cc(C(=O)NCc2c(OC)cc(C)[nH]c2=O)c1C)C1CCN(CC(F)(F)F)CC1 [Example 40, 3-(ethyl(1-(2,2,2-trifluoroethyl)piperidin-4-yl)amino)-N-((4-methoxy-6-methyl-2-carbonyl-1,2-dihydropyridin-3-yl)methyl)-2-methyl-5-(1-methyl-2′,3′,5′,6′-tetrahydrospiro[dihydroindole-3,4′-pyran]-6-yl)benzamide]	–
–	–	–	–	–	–	–	CCN1C(=O)C2(CCOCC2)c2ccc(-c3cc(N(CC)C4CCOCC4)c(C)c(C(=O)NCc4c(C)cc(C)[nH]c4=O)c3Cl)cc21 [Example 48, 2-chloro-N-((4,6-dimethyl-2-oxo-1,2-dihydropyridin-3-yl)methyl)-5-(ethyl(tetrahydro-2H-pyran-4-yl)amino)-3-(1-ethyl-2-oxo-2′,3′,5′,6′-tetrahydrospiro[dihydroindole-3,4′-pyran]-6-yl)-6-methylbenzamide]	IC50 ([2]; read-out: Pfeiffer Proliferation IC50 Nanomoles per Liter (nM)): 1.42 nM; IC50 [3, 9]: 1.99 nM
997	1.31	1300	598	26.2	–	–	CCN(c1cc(-c2ccc3c(c2)N(C(C)C)CC32CCOCC2)c(Cl)c(C(=O)NCc2c(OC)cc(C)[nH]c2=O)c1C)C1CCOCC1 [Example 49, 2-chloro-5-(ethyl(tetrahydro-2H-pyran-4-yl)amino)-3-(1-isopropyl-2,3,5,6-tetrahydrospiro[dihydroindole-3,4-pyran]-6-yl)-N-((4-methoxy-6-methyl-2-oxo-1,2-dihydropyridin-3-yl)methyl)-6-methylbenzamide]	–
–	–	–	–	–	1.87	3.67	CCN1CC2(CCOCC2)c2ccc(-c3cc(N(CC)C4CCOCC4)c(C)c(C(=O)NCc4c(C)cc(C)[nH]c4=O)c3Cl)cc21 [Example 54, 2-chloro-N-((4,6-dimethyl-2-carbonyl-1,2-dihydropyridin-3-yl)methyl)-5-(ethyl(tetrahydro-2H-pyran-4-yl)amino)-3-(1-ethyl-2′,3′,5′,6′-tetrahydrospiro[dihydroindole-3,4′-pyran]-6-yl)-6-methylbenzamide]	–
–	–	–	–	–	1.97	3.35	CCCN1CC2(CCOCC2)c2ccc(-c3cc(N(CC)C4CCOCC4)c(C)c(C(=O)NCc4c(C)cc(C)[nH]c4=O)c3F)cc21 [Example 59, N-((4,6-dimethyl-2-carbonyl-1,2-dihydropyridin-3-yl)methyl)-3-(ethyl(tetrahydro-2H-pyran-4-yl)amino)-6-fluoro-2-methyl-5-(1-propyl-2′,3′,5′,6′-tetrahydrospiro[dihydroindole-3,4′-pyran]-6-yl)benzamide]	–
–	–	–	–	–	–	–	CCN(c1cc(-c2ccc3c(c2)N(C(C)C)C(=O)C32CCOCC2)cc(C(=O)NCc2c(OC)cc(C)[nH]c2=O)c1C)C1CCOC(C)(C)C1 (stereo not drawn) [Example 64, 3-((2,2-dimethyltetrahydro-2H-pyran-4-yl)(ethyl)amino)-5-(1-isopropyl-2-carbonyl-2′,3′,5′,6′-tetrahydrospiro[dihydroindole-3,4′-pyran]-6-yl)-N-((4-methoxy-6-methyl-2-carbonyl-1,2-dihydropyridin-3-yl)methyl)-2-methylbenzamide]	IC50 [3, 9]: 0.81 nM
–	–	–	–	–	0.87	–	CCN(c1cc(-c2ccc3c(c2)N(C(=O)C(F)(F)F)CC32CCOCC2)cc(C(=O)NCc2c(C)cc(C)[nH]c2=O)c1C)C1CCOCC1 [Example 75, 5-(1-trifluoroacetyl-2′,3′,5′,6′-tetrahydrospiro[dihydroindole-3,4′-pyran]-6-yl)-N-((4,6-dimethyl-2-carbonyl-1,2-dihydropyridin-3-yl)methyl)-3-(ethyl(tetrahydro-2H-pyran-4-yl)amino)-2-methylbenzamide]	–
948	1.15	1570	415	33.1	–	–	CCN(c1cc(-c2ccc3c(c2)NC(=O)C32CCOCC2)cc(C(=O)NCc2c(OC)cc(C)[nH]c2=O)c1C)C1CCOCC1 [Example 115, 3-(Ethyl(tetrahydro-2H-pyran-4-yl)amino)-N-((4-methoxy-6-methyl-2-oxo-1,2-dihydropyridin-3-yl)methyl)-2-methyl-5-(2-oxo-2′,3′,5′,6′-tetrahydrospiro[dihydroindole-3,4′-pyran]-6-yl)benzamide]	–

SMILES	AUC [1, 4] [ng·h/mL]	half-life [1] [h]	AUC [1, 5] [ng·h/mL]	Cmax [1, 5] [ng/mL]	bioavailability [1, 6] [%]	IC50 [2, 7] [nM]	IC50 [3, 8] [nM]	also measured
CCN(c1cc(-c2ccc3c(c2)C2(CC3)CC(C)N(CC)C(C)C2)cc(C(=O)NCc2c(OC)cc(C)[nH]c2=O)c1C)C1CCOCC1 (stereo not drawn) [Example 50, 3-(ethyl(tetrahydro-2H-pyran-4-yl)amino)-5-(1′-ethyl-2′,6′-dimethyl-2,3-dihydrospiro[indene-1,4′-piperidine]-6-yl)-N-((4-methoxy-6-methyl-2-oxo-1,2-dihydropyridin-3-yl)methyl)-2-methylbenzamide formate]	954	1.34	1350	448	28.2	–	–	IC50 [3, 9]: 1.08 nM
CCN(c1cc(-c2ccc3c(c2)N(C)C(=O)C32CCN(C(C)C)CC2)c(F)c(C(=O)NCc2c(C)cc(C)[nH]c2=O)c1C)C1CCOCC1 [Example 61, N-((4,6-dimethyl-2-oxo-1,2-dihydropyridin-3-yl)methyl)-3-(ethyl(tetrahydro-2H-pyran-4-yl)amino)-6-fluoro-5-(1′-isopropyl-1-methyl-2-oxospiro[dihydroindole-3,4′-piperidine]-6-yl)-2-methylbenzamide]	932	1.72	1250	426	26.8	–	–	–
CCN(c1cc(-c2ccc3c(c2)NC(=O)C32CCNCC2)cc(C(=O)NCc2c(OC)cc(C)[nH]c2=O)c1C)C1CCNCC1 [Example 116, 3-(Ethyl(piperidin-4-yl)amino)-N-((4-methoxy-6-methyl-2-oxo-1,2-dihydropyridin-3-yl)methyl)-2-methyl-5-(2-oxospiro[indole-3,4′-piperidine]-6-yl)benzamide]	912	1.05	1570	453	–	–	–	bioavailability ([1]; in vivo, po, 20 mg/kg): 34.3%

— patent US12473298B2, “Amide compounds, preparation method therefor, and use thereof in the medical field” (Shanghai Synergy Pharmaceutical Sciences Co., Ltd., priority 2019, dated 2025)
